Measured values taken from PubChem BioAssay AID1259407 (Chemical Carcinogenesis Research Information System (CCRIS), 2018).
The source made the active and inactive calls. How the calls were made is not given here.

Tested on: CCRIS mutagenicity, Ames/micronucleus/aberration tests
Experiment: CCRIS mutagenicity studies

SMILES	mutagenic call (Test System: AMES SALMONELLA TYPHIMURIUM, Strain/Indicator: TA1538, Metabolic Activation: GUINEA PIG, LIVER, HEPATOCYTES, Method: PREINCUBATION)	mutagenic call (Test System: AMES SALMONELLA TYPHIMURIUM, Strain/Indicator: TA1538, Metabolic Activation: GUINEA PIG, LIVER, S-9, ACETYL-COA (0.1 OR 1 MILLIMOLAR), Method: PREINCUBATION)	mutagenic call (Test System: AMES SALMONELLA TYPHIMURIUM, Strain/Indicator: TA1538, Metabolic Activation: GUINEA PIG, LIVER, S-9, Method: PREINCUBATION)	mutagenic call (Test System: AMES SALMONELLA TYPHIMURIUM, Strain/Indicator: TA1538, Metabolic Activation: HAMSTER, LIVER, HEPATOCYTES, Method: PREINCUBATION)	mutagenic call (Test System: AMES SALMONELLA TYPHIMURIUM, Strain/Indicator: TA1538, Metabolic Activation: HAMSTER, LIVER, S-9, ACETYL-COA (0.1 OR 1 MILLIMOLAR), Method: PREINCUBATION)	mutagenic call (Test System: AMES SALMONELLA TYPHIMURIUM, Strain/Indicator: TA1538, Metabolic Activation: HAMSTER, LIVER, S-9, Method: PREINCUBATION)	mutagenic call (Test System: AMES SALMONELLA TYPHIMURIUM, Strain/Indicator: TA1538, Metabolic Activation: RAT, LIVER, HEPATOCYTES, Method: PREINCUBATION)	mutagenic call (Test System: AMES SALMONELLA TYPHIMURIUM, Strain/Indicator: TA1538, Metabolic Activation: RAT, LIVER, S-9, ACETYL-COA (0.1 OR 1 MILLIMOLAR), Method: PREINCUBATION)	mutagenic call (Test System: AMES SALMONELLA TYPHIMURIUM, Strain/Indicator: TA1538, Metabolic Activation: RAT, LIVER, S-9, Method: PREINCUBATION)	mutagenic call (Test System: Ames Salmonella typhimurium, Strain/Indicator: TA102, Metabolic Activation: None, Method: Preincubation)	mutagenic call (Test System: Ames Salmonella typhimurium, Strain/Indicator: TA102, Metabolic Activation: Rat, liver, S-9, Aroclor 1254, 4%, Method: Preincubation)	mutagenic call (End Point: IN VITRO CHROMOSOMAL ABERRATIONS, Test System: CHL CELLS, Metabolic Activation: RAT, LIVER, S-9, SODIUM PHENOBARBITAL AND 5,6-BENZOFLAVONE)	mutagenic call (Test System: AMES SALMONELLA TYPHIMURIUM, Strain/Indicator: TA98, Metabolic Activation: NONE, Method: PREINCUBATION)	mutagenic call (Test System: AMES SALMONELLA TYPHIMURIUM, Strain/Indicator: TA98, Metabolic Activation: RAT, LIVER, S-9, KANECHLOR 500, Method: PREINCUBATION)	mutagenic call (Test System: AMES SALMONELLA TYPHIMURIUM, Strain/Indicator: TA98, Metabolic Activation: RAT, LIVER, S-9, PHENOBARBITAL AND BETA-NAPHTHOFLAVONE, Method: PREINCUBATION)	mutagenic call (Test System: AMES SALMONELLA TYPHIMURIUM, Strain/Indicator: TA100, Metabolic Activation: NONE, Method: PREINCUBATION)	mutagenic call (Test System: AMES SALMONELLA TYPHIMURIUM, Strain/Indicator: TA100, Metabolic Activation: RAT, LIVER, S-9, KANECHLOR 500, Method: PREINCUBATION)	mutagenic call (Test System: AMES SALMONELLA TYPHIMURIUM, Strain/Indicator: TA100, Metabolic Activation: RAT, LIVER, S-9, PHENOBARBITAL AND BETA-NAPHTHOFLAVONE, Method: PREINCUBATION)
CC(=O)Nc1ccc(-c2ccc(N)cc2)cc1	active; positive	active; positive	active; positive	active; positive	active; positive	active; positive	active; positive	active; positive	active; positive	inactive; negative	active; positive	–	–	–	–	–	–	–
Nc1c(Cl)cc([N+](=O)[O-])cc1[N+](=O)[O-]	–	–	–	–	–	–	–	–	–	–	–	active; positive (structural changes); authors report equivocal results for ploidy chang	active; positive	active; positive	active; positive	active; positive	active; positive	active; positive
